Source: patent publication US10233422B2, “Pluripotent cell lines and methods of use thereof” (Parkinson's Institute, priority 2008, dated 2019)

System: paraquat-treated mouse brain
Test: Ex vivo screening of anti-aggregation compounds: Thioflavin S deposits in paraquat-treated mouse brain
Details: 250 uM, FIG. 33D-E

Oc1ccccc1O [Catechol, catechol]
Thioflavin S deposits (which label aggregate protein): Diminished Thioflavin S deposits
